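Following 48 hours of exposure in 96-well plates, responses at five concentrations were used to interpolate endpoints linearly. At the GI50, growth is halved.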 Activity calls are given as the source filed them. Cut-off read from the data, not from the text of the source: active = GI50 up to about 1.1 µM and inactive = higher.
How the values were obtained:
Test in all cases: NCI tumour cell line growth inhibition, 48 h
LOX IMVI = test system: LOX IMVI
OVCAR-8 = test system: OVCAR-8
M14 = test system: M14
SK-MEL-2 = test system: SK-MEL-2
MDA-MB-231 = test system: MDA-MB-231
MCF7 = test system: MCF7
IGROV-1 = test system: IGROV-1
MDA-MB-435 = test system: MDA-MB-435
SR = test system: SR
DU-145 = test system: DU-145
OVCAR-4 = test system: OVCAR-4
UACC-62 = test system: UACC-62
K562 = test system: K562
NCI-H23 = test system: NCI-H23
CAKI-1 = test system: CAKI-1
TK-10 = test system: TK-10
HCT-116 = test system: HCT-116
MOLT-4 = test system: MOLT-4
NCI-H460 = test system: NCI-H460
SF-539 = test system: SF-539

| Structure (SMILES) | GI50 (LOX IMVI) | GI50 (OVCAR-8) | GI50 (M14) | GI50 (SK-MEL-2) | GI50 (MDA-MB-231) | GI50 (MCF7) | GI50 (IGROV-1) | GI50 (MDA-MB-435) | GI50 (SR) | GI50 (DU-145) | GI50 (OVCAR-4) | GI50 (UACC-62) | GI50 (K562) | GI50 (NCI-H23) | GI50 (CAKI-1) | GI50 (TK-10) | GI50 (HCT-116) | GI50 (MOLT-4) | GI50 (NCI-H460) | GI50 (SF-539) |
| --- | --- | --- | --- | --- | --- | --- | --- | --- | --- | --- | --- | --- | --- | --- | --- | --- | --- | --- | --- | --- |
| Cc1cc(Cc2cc(Cc3cc(C)cc(C(C)(C)C)c3O)c(C)cc2C)c(O)c(C(C)(C)C)c1 | 20 µM (inactive) | 24.9 µM (inactive) | 17.4 µM (inactive) | > 100 µM (inactive) | > 100 µM (inactive) | 12.7 µM (inactive) | 17.3 µM (inactive) | 13 µM (inactive) | 29.2 µM (inactive) | 14.5 µM (inactive) | 11 µM (inactive) | 13.4 µM (inactive) | 15.7 µM (inactive) | 17.4 µM (inactive) | 19.9 µM (inactive) | 24.1 µM (inactive) | 16.4 µM (inactive) | 16.9 µM (inactive) |  |  |
| c1cc(C2N3CCCN2CC3)ccn1 (stereo not given) | 57.9 µM (inactive) | 53.8 µM (inactive) | 61.1 µM (inactive) | > 100 µM (inactive) | > 100 µM (inactive) | 37.8 µM (inactive) | 96.6 µM (inactive) | 25.5 µM (inactive) | 49.9 µM (inactive) | > 100 µM (inactive) | 86.7 µM (inactive) | > 100 µM (inactive) | 28.2 µM (inactive) | 68.2 µM (inactive) | > 100 µM (inactive) | > 100 µM (inactive) | 36.9 µM (inactive) | 36.1 µM (inactive) | 83.6 µM (inactive) |  |
| O=C1/C(=C/c2ccccc2)N=C2Sc3c([nH]cnc3=O)N12 | > 100 µM (inactive) | > 100 µM (inactive) | > 100 µM (inactive) | > 100 µM (inactive) | > 100 µM (inactive) | > 100 µM (inactive) | > 100 µM (inactive) | 60 µM (inactive) | 25.1 µM (inactive) | > 100 µM (inactive) | 35.1 µM (inactive) |  | 28.2 µM (inactive) | > 100 µM (inactive) | > 100 µM (inactive) | > 100 µM (inactive) | > 100 µM (inactive) | 44.3 µM (inactive) |  | > 100 µM (inactive) |
| Cc1ccc2nc(-c3ccc(N4C(=O)C(Cl)C4c4ccc(Cl)cc4)cc3)sc2c1 (stereo not given) | 5.35 µM (inactive) | 28.5 µM (inactive) | 21.4 µM (inactive) |  | 13.5 µM (inactive) | 14.6 µM (inactive) |  | 17.4 µM (inactive) | 24.2 µM (inactive) | 27.2 µM (inactive) | 1.95 µM (inactive) | 15.3 µM (inactive) | 24.5 µM (inactive) | 21.6 µM (inactive) | 15.5 µM (inactive) | 16.4 µM (inactive) | 21.6 µM (inactive) |  | 21.9 µM (inactive) | 17.5 µM (inactive) |
| COC(=O)c1ccc(Cc2cc(Cc3ccc(C(=O)OC)cc3)cc(Cc3ccc(C(=O)OC)cc3)c2)cc1 | > 25 µM (inactive) | > 25 µM (inactive) | > 25 µM (inactive) | > 25 µM (inactive) | > 25 µM (inactive) | > 25 µM (inactive) | > 25 µM (inactive) | > 25 µM (inactive) | > 25 µM (inactive) | > 25 µM (inactive) | 16.5 µM (inactive) | > 25 µM (inactive) | > 25 µM (inactive) |  |  | > 25 µM (inactive) | > 25 µM (inactive) | > 25 µM (inactive) | > 25 µM (inactive) | > 25 µM (inactive) |
| c1cc(CN2CCNCCNCCNCC2)cc(CN2CCNCCNCCNCC2)c1 | > 100 µM (inactive) | > 100 µM (inactive) | > 100 µM (inactive) | > 100 µM (inactive) | > 100 µM (inactive) | > 100 µM (inactive) | > 100 µM (inactive) | > 100 µM (inactive) | > 100 µM (inactive) | > 100 µM (inactive) | > 100 µM (inactive) | > 100 µM (inactive) | > 100 µM (inactive) | > 100 µM (inactive) |  | > 100 µM (inactive) | > 100 µM (inactive) | > 100 µM (inactive) | > 100 µM (inactive) | > 100 µM (inactive) |
| CC(C(=O)N1c2ccccc2Sc2ccccc21)N1c2ccccc2Sc2ccccc21 (stereo not given) | > 100 µM (inactive) | 97.1 µM (inactive) | > 100 µM (inactive) | > 100 µM (inactive) | > 100 µM (inactive) | 42.9 µM (inactive) | 79.8 µM (inactive) | > 100 µM (inactive) | > 100 µM (inactive) | > 100 µM (inactive) | > 100 µM (inactive) | > 100 µM (inactive) | 84.1 µM (inactive) | 74.8 µM (inactive) |  | > 100 µM (inactive) | > 100 µM (inactive) | 42.9 µM (inactive) | > 100 µM (inactive) | > 100 µM (inactive) |
| N/C(CSCCSC/C(N)=N/O)=N\O | > 100 µM (inactive) |  | > 100 µM (inactive) |  | > 100 µM (inactive) | > 100 µM (inactive) | > 100 µM (inactive) | > 100 µM (inactive) | > 100 µM (inactive) | > 100 µM (inactive) | > 100 µM (inactive) | > 100 µM (inactive) | > 100 µM (inactive) | > 100 µM (inactive) | > 100 µM (inactive) | > 100 µM (inactive) | > 100 µM (inactive) | > 100 µM (inactive) | > 100 µM (inactive) | > 100 µM (inactive) |
| CCCCCCCCCCCCCCCCCC(=O)OCC(COC(=O)CCCN)OC(=O)CCCN (stereo not given) | 18.5 µM (inactive) | 18.5 µM (inactive) | 16.9 µM (inactive) |  | 15 µM (inactive) | 24.4 µM (inactive) | 2.91 µM (inactive) | 17.2 µM (inactive) | 23.6 µM (inactive) | 19.6 µM (inactive) | 22 µM (inactive) | 18.2 µM (inactive) | 35.6 µM (inactive) | 16.4 µM (inactive) | 18.7 µM (inactive) | 20.8 µM (inactive) | 19.5 µM (inactive) | 24.8 µM (inactive) | 14.9 µM (inactive) | 18.2 µM (inactive) |
| C=CC1(O)CCCC=C1COCc1ccccc1 (stereo not given) | 18.8 µM (inactive) | 53 µM (inactive) | > 100 µM (inactive) | > 100 µM (inactive) | > 100 µM (inactive) | > 100 µM (inactive) | 16.6 µM (inactive) | 47.5 µM (inactive) | 24.8 µM (inactive) | > 100 µM (inactive) | 38.4 µM (inactive) | > 100 µM (inactive) | 32.2 µM (inactive) | 98.6 µM (inactive) | > 100 µM (inactive) | > 100 µM (inactive) | 51.3 µM (inactive) | 23.4 µM (inactive) | > 100 µM (inactive) |  |
| CN(C)c1n/c(=N/Cc2cccs2)ss1 | > 5.62 µM (inactive) | > 10 µM (inactive) | > 10 µM (inactive) |  | > 10 µM (inactive) | > 10 µM (inactive) | > 10 µM (inactive) | > 10 µM (inactive) | 0.573 µM (active) | > 10 µM (inactive) | > 10 µM (inactive) | > 10 µM (inactive) | 3.4 µM (inactive) | > 10 µM (inactive) | > 10 µM (inactive) | > 10 µM (inactive) | > 10 µM (inactive) | 1.72 µM (inactive) | > 10 µM (inactive) | > 10 µM (inactive) |
| O=C(O)Cc1cccc2c1OC(c1ccccc1)C(C(=O)c1ccccc1)C2=O (stereo not given) | 83.8 µM (inactive) | 46.6 µM (inactive) |  |  | 32.7 µM (inactive) | 34.6 µM (inactive) | 38.7 µM (inactive) | 35 µM (inactive) | 39.3 µM (inactive) | 69 µM (inactive) |  | 13.4 µM (inactive) | 32.7 µM (inactive) | 29.5 µM (inactive) | 42.1 µM (inactive) | 26.5 µM (inactive) | 33 µM (inactive) | 43.1 µM (inactive) | 30.5 µM (inactive) | 51.5 µM (inactive) |
| Cc1cc(O)c(C(c2cccnc2)c2c(O)cc(C)[nH]c2=O)c(=O)[nH]1 | > 100 µM (inactive) | > 100 µM (inactive) | > 100 µM (inactive) |  | > 100 µM (inactive) | > 100 µM (inactive) | > 100 µM (inactive) | > 100 µM (inactive) | > 100 µM (inactive) | > 100 µM (inactive) | > 100 µM (inactive) | > 100 µM (inactive) | > 100 µM (inactive) | > 100 µM (inactive) | > 100 µM (inactive) | > 100 µM (inactive) | > 100 µM (inactive) | > 100 µM (inactive) | > 100 µM (inactive) |  |
| CCCCc1ccc(Nc2nc(Cl)c3ncn(C4CC(Oc5ccc(C)cc5)C(COc5ccc(C)cc5)O4)c3n2)cc1 (stereo not given) | > 100 µM (inactive) | > 100 µM (inactive) | > 100 µM (inactive) | > 100 µM (inactive) | > 100 µM (inactive) | > 100 µM (inactive) | > 100 µM (inactive) | > 100 µM (inactive) | > 100 µM (inactive) | > 100 µM (inactive) |  | > 100 µM (inactive) | > 100 µM (inactive) | > 100 µM (inactive) | 6.52 µM (inactive) | > 100 µM (inactive) | > 100 µM (inactive) | > 100 µM (inactive) |  | > 100 µM (inactive) |
| CC1C2C=CC1C(c1c3ccc(=O)c(O)c-3oc3c(O)c(O)ccc13)C2C(=O)O (stereo not given) | 20.9 µM (inactive) | > 100 µM (inactive) | > 100 µM (inactive) | > 100 µM (inactive) | > 100 µM (inactive) | 20.7 µM (inactive) | > 100 µM (inactive) | 19.6 µM (inactive) | 33.9 µM (inactive) | > 100 µM (inactive) | 78.9 µM (inactive) | > 100 µM (inactive) | 21.4 µM (inactive) | 35.6 µM (inactive) | > 100 µM (inactive) | > 100 µM (inactive) | 27.8 µM (inactive) | 21.6 µM (inactive) | > 100 µM (inactive) |  |
